According to US20230106864A1, “COMPOSITIONS AND METHODS FOR THE TREATMENT OF INTRACELLULAR BACTERIAL INFECTIONS” (Endolytix Technology, Inc., priority 2020, published 2023):

Tested on: M. abscessus
Assay: Cell growth assay of M. abscessus with ABlα plus antibiotic, Fractional Inhibitory Concentration (FIC) index
Format: cell-based, Mycobacterium abscessus
Conditions: antibiotic in combination with ABlα; FIG. 5

SMILES | effect on attenuation of M. abscessus growth by FIC index
NCC[C@H](O)C(=O)N[C@@H]1C[C@H](N)[C@@H](O[C@H]2O[C@H](CN)[C@@H](O)[C@H](O)[C@H]2O)[C@H](O)[C@H]1O[C@H]1O[C@H](CO)[C@@H](O)[C@H](N)[C@H]1O [amikacin] | synergistic
C[C@@H](O)[C@H]1C(=O)N2C(C(=O)[O-])=C(SC3Cn4cnc[n+]4C3)[C@H](C)[C@H]12 (stereo partly drawn) [biapenem] | synergistic
CO[C@@]1(NC(=O)Cc2cccs2)C(=O)N2C(C(=O)O)=C(COC(N)=O)CS[C@@H]21 [cefoxitin] | synergistic
